# Data from patent publication EP2610242A1, “Positively charged water-soluble prodrugs of aspirin” (Techfields Biochem Co. Ltd, priority 2006, dated 2008).
# Read-outs that look alike come from different tables or passages of the source.
# Legend:
# [1] = Solubility in water of the prepared product
# rats [2] = test: Antipyretic activity, E. coli suspension as pyrogen, body temperature; type: in vivo; details: for body temperature t=0 min / body temperature t=90 min / body temperature t=180 min. / body temperature t=270 min.: in °C (unit assumed)
# Experimental: Antipyretic activity: Rats received a sterilized E. coli suspension as a pyrogen. 56 rats were divided into 7 groups. The control group is group A. 2 hours later, Aspirin (ASA, B1 for 100mg/kg and B2 for 150mg/kg) and diethylaminoethyl acetylsalicylate.AcOH (DEAE-ASA, C1 for 100mg/kg and C2 for 150 mg) were administered orally and diethylaminoethyl acetylsalicylate.AcOH (DEAE-ASA, D1 for 100 mg and D2 for 150 mg/kg) were administered transdermally. The body temperature of rats was taken at 90 min. intervals before and after the administration of the test compounds.
# [3] = cited from earlier work
# [4] = human, 20 % (suspension in the donor), pH 7.4
# physchem [5] = details: pH 7, aqueous buffer
# [6] = hairless, mouse, in vivo
# [7] = Half-life in whole human blood
# Description: (§3) To determine how much the pro-drugs of acetylsalicylic acid were changed back to the drug itself or diethylaminoethyl salicylate, we diluted whole human blood 20 times with a pH 7.4 phosphate buffer (0.2M).
# rats [8] = details: rat, in vivo, po, 100 mg/kg/day, 21 days
# mice [9] = test: Analgetic activity, acetic acid writhing test; type: in vivo; details: for inhibition at 50 mg/kg / inhibition at 100 mg/kg: Mus musculus, po, read-out: % (rate of writhings inhibition)
# Experimental: The number of writhings that occurred when mice were administered an acetic acid solution intraperitoneally were counted, and the rate of inhibition based on the control group was calculated. 42 mice were divided into 7 groups (6 mice each). Aspirin (ASA, 50 mg/kg and 100 g) was administered to groups B1 and B2 of mice and diethylaminoethyl acetylsalicylate.AcOH (DEAE-ASA, 50 mg and 100 mg/kg) was administered orally to groups C1 and C2. Diethylaminoethyl acetylsalicylate.AcOH (DEAE-ASA, 50 mg and 100 mg/kg) was administered transdermally to groups D1 and D2. The A group is the control group. The test compounds were administered to the mice 30 minutes before the acetic acid solution was administered.
# [10] = Acute toxicity, oral LD50; type: in vivo; details: rat, in vivo, rats, read-out: LD50 orally in rats
# Description: (§1) The acute toxicity of the pro-drugs were investigated.
# [11] = In vitro penetration through human skin, modified Franz cells, HPLC
# [12] = In vivo penetration through the skin of intact hairless mice, plasma levels of salicylic acid by HPLC
# [13] = Solubility in pH 7 phosphate buffer; details: pH 7, aqueous buffer
# [14] = Conversion of pro-drug in whole human blood diluted 20 times with pH 7.4 phosphate buffer, HPLC; details: whole human blood diluted 20 times with pH 7.4 phosphate buffer (0.2M)
# Description: as §3
# rats [15] = test: Gastroduodenal bleeding (fecal blood) after 21 days of oral dosing; details: 100 mg/kg per day orally for 21 days
# mice [16] = test: Analgetic activity, prolongation of pain threshold of mouse tail (D'Amour-Smith Method); type: in vivo; details: versus 200mg/kg aspirin, Figure 3
# Experimental: Analgetic activity: The prolongation time of pain the threshold of a mouse tail was determined in accordance with the D'Amour-Smith Method (J. Pharmacol. Exp. Ther., 72, 74(1941)).
# (§2) • Figure 1: Cumulative amounts of acetylsalicylic acid (ASA), ethyl acetylsalicylate(E-ASA), and diethylaminoethyl acetylsalicylate.AcOH(DEAE-ASA) crossing isolated human skin tissue in Franz cells (n=5). […] In each case, the vehicle was pH 7.4 phosphate buffer (0.2 M). • Figure 2: Total plasma levels of salicylic acid (SA) after topical application of 300 mg of acetylsalicylic acid (ASA) or diethylaminoethyl acetylsalicylate.AcOH (DEAE-ASA) to the backs of hairless mice (n=5). • Figure 3. […] A is the control line. • Figure 4. […] A is the control line.
# rats [17] = test: Anti-inflammatory activity, carrageenin hind paw swelling; type: in vivo; details: 50mg/kg, oral administration and transdermal administration, Figure 4
# Experimental: Anti-inflammatory activity: 50 mg/kg of diethylaminoethyl acetylsalicylate.AcOH was administered orally or transdermally to rats and 50 mg/kg of aspirin was administered orally. 60 minutes later, a carrageenin solution was administered subcutaneously to the foot pads of the rats. The volume of the hind paw was measured at every hour after the administration of the carrageenin, and the rate of increase in the volume of the paw was calculated and designated as the rate of swelling(%).
# as §2
# rats [18] = test: Acute toxicity, oral LD50; type: in vivo; details: unit printed as g
# Description: as §1
# physchem [19] = test: physchem
# [20] = 50 mg/kg, groups B1 (ASA) and C1 (DEAE-ASA orally), 30 minutes before acetic acid
# [21] = 100 mg/kg, groups B2 (ASA) and C2 (DEAE-ASA orally), 30 minutes before acetic acid
# [22] = 50 mg/kg, groups B1 (ASA) and C1 (DEAE-ASA orally)
# [23] = 100 mg/kg, groups B2 (ASA) and C2 (DEAE-ASA orally)
# [24] = 50 mg/kg transdermally, group D1
# [25] = 100 mg/kg transdermally, group D2
compound,measurement,setting,value
CCN(CC)CCCNC(=O)c1ccccc1OC(C)=O [N-diethylaminopropyl acetylsalicylamide.AcOH],solubility,[1],280 mg/mL
CC(=O)Oc1ccccc1C(=O)NCCN(C)C [N-dimethylaminoethyl acetylsalicylamide.AcOH],solubility,[1],350 mg/mL
CC(=O)Oc1ccccc1C(=O)SCCN(C)C [S-dimethylaminoethyl acetylthiosalicylate.AcOH],solubility,[1],320 mg/mL
"CC(=O)Oc1ccccc1C(=O)O [acetylsalicylic acid, reference compound]",body temperature t=0 min,rats [2]; 100mg/kg orally,37.22±0.05
same,body temperature t=90 min,rats [2]; 100mg/kg orally,36.80±0.05
same,body temperature t=180 min.,rats [2]; 100mg/kg orally,36.85±0.05
same,body temperature t=270 min.,rats [2]; 100mg/kg orally,36.81±0.05
same,body temperature t=0 min,rats [2]; 150mg/kg orally,37.30±0.06
same,body temperature t=90 min,rats [2]; 150mg/kg orally,36.50±0.05
same,body temperature t=180 min.,rats [2]; 150mg/kg orally,36.59±0.05
same,body temperature t=270 min.,rats [2]; 150mg/kg orally,36.55±0.05
same,half live in plasma,[3],~15 min
same,Apparent flux values,[4],0.25 mg/cm^2/h
same,solubility,physchem [5],0.01 mg/mL
same,time to peak levels of salicylic acid in plasma after application of the donor systems,[6],~20 min
same,half-life,[7],15 min
same,average fecal blood,rats [8],5 mg of fecal blood per gram of feces
same,No. of Writhings,mice [9]; [20],18.2
same,No. of Writhings,mice [9]; [21],13.2
same,inhibition at 50 mg/kg,mice [9]; [22],45%
same,inhibition at 100 mg/kg,mice [9]; [23],60%
CCN(CC)CCOC(=O)c1ccccc1OC(C)=O [diethylaminoethyl acetylsalicylate.AcOH],antipyretic activity compared with aspirin,"rats [2]; 100 mg/kg dose, summary of Table 2",some better than aspirin
same,body temperature t=0 min,rats [2]; 100mg/kg orally,37.25±0.09
same,body temperature t=90 min,rats [2]; 100mg/kg orally,36.40±0.15
same,body temperature t=180 min.,rats [2]; 100mg/kg orally,36.50±0.09
same,body temperature t=270 min.,rats [2]; 100mg/kg orally,36.40±0.15
same,body temperature t=0 min,rats [2]; 100mg/kg transdermally,37.19±0.07
same,body temperature t=90 min,rats [2]; 100mg/kg transdermally,36.40±0.05
same,body temperature t=180 min.,rats [2]; 100mg/kg transdermally,36.38±0.05
same,body temperature t=270 min.,rats [2]; 100mg/kg transdermally,36.40±0.15
same,body temperature t=0 min,rats [2]; 150mg/kg orally,37.18±0.07
same,body temperature t=90 min,rats [2]; 150mg/kg orally,36.30±0.15
same,body temperature t=180 min.,rats [2]; 150mg/kg orally,36.28±0.07
same,body temperature t=270 min.,rats [2]; 150mg/kg orally,36.20±0.09
same,body temperature t=0 min,rats [2]; 150mg/kg transdermally,37.33±0.05
same,body temperature t=90 min,rats [2]; 150mg/kg transdermally,36.27±0.15
same,body temperature t=180 min.,rats [2]; 150mg/kg transdermally,36.26±0.07
same,body temperature t=270 min.,rats [2]; 150mg/kg transdermally,36.22±0.08
same,"antipyretic activity, transdermal versus oral administration",rats [2]; summary of Table 2,better than oral administration
same,LD50,[10],2300 mg/kg
same,Apparent flux values,"[11]; isolated human skin, Franz cells, donor 20% suspension or 20% solution in pH 7.4 phosphate buffer (0.2M)",100 mg/cm^2/h
same,diffuses through human skin times faster than acetylsalicylic acid itself,[11]; ratio versus acetylsalicylic acid,~400 times
same,diffuses through human skin times faster than ethyl acetylsalicylate,[11]; ratio versus ethyl acetylsalicylate,~100 times
same,difference of peak plasma levels,[12]; pro-drug donor versus acetylsalicylic acid donor,approximately 100 times
same,peak plasma level of salicylic acid,"[12]; topical, 30% in 1 mL isopropanol on 1 cm^2 of the back, hairless mice",~10 mg/mL
same,peak plasma level times higher than the salicylate plasma level for effective analgesia,[12]; versus 0.15-0.3 mg/ml,33-67 times
same,peak plasma level times higher than the salicylate plasma level for effective anti-inflammatory activity,[12]; versus 0.2-0.3 mg/ml,33-50 times
same,half-life,[7]; blood,~4 min
same,solubility,[13],> 300 mg/mL
same,pro-drug changed back to the drug itself,[14],80%
same,solubility,[1],300 mg/mL
same,average fecal blood,rats [15],none
same,analgetic activity (prolongation time of pain threshold),mice [16]; 200 mg/kg orally (C),stronger analgetic activity
same,analgetic activity (prolongation time of pain threshold),mice [16]; 200 mg/kg transdermally (D),stronger analgetic activity
same,Anti-inflammatory activity (rate of swelling) compared with aspirin,rats [17],better Anti-inflammatory activity than that of aspirin
same,% (rate of writhings inhibition),mice [9]; [24],56%
same,No. of Writhings,mice [9]; [24],14.5
same,No. of Writhings,mice [9]; [20],15.4
same,% (rate of writhings inhibition),mice [9]; [25],70%
same,No. of Writhings,mice [9]; [25],10.1
same,No. of Writhings,mice [9]; [21],11
same,inhibition at 50 mg/kg,mice [9]; [22],54%
same,inhibition at 100 mg/kg,mice [9]; [23],67%
same,analgetic activity compared with aspirin,"mice [9]; writhing test, summary of Table 1",better analgetic activity than aspirin
CC(=O)Oc1ccccc1C(=O)OCCN(C)C [dimethylaminoethyl acetylsalicylate.AcOH],LD50 orally in rats,rats [18],2.2 g
same,solubility,physchem [19],350 mg/mL
CCCN(CCC)CCOC(=O)c1ccccc1OC(C)=O [dipropylaminoethyl acetylsalicylate.AcOH],solubility,[1],300 mg/mL
CCOC(=O)c1ccccc1OC(C)=O [ethyl acetylsalicylate],Apparent flux values,[4],1 mg/cm^2/h
same,penetration rate difference between ethyl acetylsalicylate and acetylsalicylic acid,[4],4 times
O=C(O)c1ccccc1O [salicylic acid],peak plasma level of salicylic acid,[6],~0.01 mg/mL
S-diethylaminoethyl propionylthiosalicylate.AcOH,Solubility in water,[1],280 mg/mL
